In the supplement of paper PMC7840683:
Where a name gives a salt, the structure may show the parent alone. ± gives the standard deviation of the averaged measurements.

Test system: HepaRG
Experiment: LDH release cytotoxicity, % of total lysis control; higher = more cytotoxic
Conditions: 48 h
Summary of the method: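 On collagen I-coated 96-well plates, single-lot HepaRG cells were exposed for 48 h, in duplicate, to eight-point half-log series of test chemicals beginning at 100 µM. The exposure medium was serum-free induction medium with 0.5% DMSO, and total lysis wells got 0.1% Triton X. Resorufin fluorescence from the CytoTox-ONE reaction, read on a Tecan Safire, reported LDH in 50 µL of spent medium. Percent cytotoxicity came from normalization to on-plate vehicle and total lysis controls, averaged over the duplicates.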

OC1CCC(C2CCCCC2)CC1 (stereo unspecified) [4-Cyclohexylcyclohexanol]
Conditions | LDH release cytotoxicity [%]
0.03162 µM | -1.67 ± 0.32
0.1 µM | -1.27 ± 1.5
0.3162278 µM | -1.62 ± 1.1
1 µM | -2.39 ± 0.036
3.16228 µM | -2.08 ± 1.7
10 µM | -1.58 ± 0.49
31.6228 µM | -1.22 ± 0.35
100 µM | 0.00977 ± 0.63

Cc1ccc(O)cc1 [p-Cresol]
Conditions | LDH release cytotoxicity [%]
0.03162 µM | -0.87 ± 0.85
0.1 µM | -2.34 ± 0.61
0.3162278 µM | -1.45 ± 1.2
1 µM | -0.608 ± 0.68
3.16228 µM | -1.02 ± 0.95
10 µM | -1.22 ± 0.042
31.6228 µM | -0.051 ± 0.075
100 µM | 1.76 ± 0.21

CC1CC(C)C(=O)C(C(O)CC2CC(=O)NC(=O)C2)C1 (stereo unspecified) [Cycloheximide]
Conditions | LDH release cytotoxicity [%]
0.03162 µM | -0.96 ± 0.28
0.1 µM | -0.691 ± 0.23
0.3162278 µM | -1.8 ± 0.17
1 µM | -1.99 ± 0.4
3.16228 µM | -1.19 ± 0.83
10 µM | 3.47 ± 0.21
31.6228 µM | 24 ± 0.46
100 µM | 61.9 ± 1.8

Oc1ccccc1O [1,2-Benzenediol]
Conditions | LDH release cytotoxicity [%]
0.03162 µM | -1.86 ± 1.3
0.1 µM | -1.713 ± 0.01
0.3162278 µM | -1.94 ± 0.18
1 µM | -2.41 ± 0.4
3.16228 µM | -2.9 ± 0.69
10 µM | -2.31 ± 0.29
31.6228 µM | -1.42 ± 0.88
100 µM | -0.0267 ± 0.61

O=C(O)c1cc(Oc2ccc(C(F)(F)F)cc2Cl)ccc1[N+](=O)[O-] [5-(2-Chloro-4-(trifluoromethyl)phenoxy)-2-nitrobenzoic acid]
Conditions | LDH release cytotoxicity [%]
0.03162 µM | -0.08 ± 0.59
0.1 µM | -1.4 ± 0.2
0.3162278 µM | -0.769 ± 0.18
1 µM | -1.39 ± 0.35
3.16228 µM | -0.738 ± 0.35
10 µM | -0.0876 ± 0.044
31.6228 µM | 0.334 ± 0.06
100 µM | 2.95 ± 0.47

CSC1=NC(C)(c2ccccc2)C(=O)N1Nc1ccccc1 (stereo unspecified) [Fenamidone]
Conditions | LDH release cytotoxicity [%]
0.03162 µM | -1.05 ± 0.0084
0.1 µM | -1.31 ± 0.79
0.3162278 µM | -1.11 ± 0.55
1 µM | -1.54 ± 1.1
3.16228 µM | -1.63 ± 0.022
10 µM | -2.26 ± 0.039
31.6228 µM | 6.59 ± 0.97
100 µM | 15.2 ± 0.075

CC(C)(OO)c1ccccc1 [Cumene hydroperoxide]
Conditions | LDH release cytotoxicity [%]
0.03162 µM | -1.39 ± 0.22
0.1 µM | 0.0774 ± 0.7
0.3162278 µM | -0.106 ± 0.65
1 µM | -0.2 ± 0.59
3.16228 µM | 0.797 ± 0.57
10 µM | 0.939 ± 1.3
31.6228 µM | 0.476 ± 0.51
100 µM | 1.68 ± 0.062

CCCCN(CCCC)N=O [N-Nitrosodibutylamine]
Conditions | LDH release cytotoxicity [%]
0.03162 µM | -1.09 ± 0.045
0.1 µM | -1.36 ± 0.25
0.3162278 µM | -1.56 ± 0.69
1 µM | -2.27 ± 0.91
3.16228 µM | -1.56 ± 0.58
10 µM | -1.2 ± 0.67
31.6228 µM | -1.12 ± 0.17
100 µM | 0.0939 ± 0.25

O=C(O)c1ccc2c(c1)nc(C(=O)NC1CCN(C3CC3)CC1)n2Cc1cc(-c2ccc(Cl)s2)on1 [AVE3247]
Conditions | LDH release cytotoxicity [%]
0.0075895 µM | -0.875 ± 0.16
0.024 µM | -2.04 ± 0.26
0.0758947 µM | -2.37 ± 0.35
0.24 µM | -2.63 ± 0.092
0.758947 µM | -2.23 ± 0.33
2.4 µM | -1.94 ± 0.17
7.58947 µM | -1.68 ± 0.43
24 µM | -0.941 ± 0.19

CCCCCCCCCC[N+](C)(C)CCCCCCCCCC [Didecyldimethylammonium chloride]
Conditions | LDH release cytotoxicity [%]
0.0317809 µM | -1.08 ± 1.2
0.1005 µM | -0.913 ± 0.75
0.317809 µM | -0.501 ± 0.85
1.005 µM | -2.08 ± 0.42
3.17809 µM | -0.414 ± 0.69
10.05 µM | 0.276 ± 0.56
31.7809 µM | 0.202 ± 0.086
100.5 µM | 1.33 ± 0.6

COc1cc(C=O)ccc1O [4-Hydroxy-3-methoxybenzaldehyde]
Conditions | LDH release cytotoxicity [%]
0.031623 µM | -0.0885 ± 1.4
0.1 µM | -2.63 ± 0.42
0.316228 µM | -3.71 ± 0.71
1 µM | -4.06 ± 0.31
3.16228 µM | -3.91 ± 0.7
10 µM | -3.69 ± 0.35
31.6228 µM | -3.12 ± 0.07
100 µM | 0.307 ± 0.14

CN1C(=O)N(c2ccccc2Br)Cc2cnc(Nc3ccc4c(c3)OCC(CO)O4)nc21 (stereo unspecified)
Conditions | LDH release cytotoxicity [%]
0.03162 µM | 0.454 ± 1.5
0.1 µM | -0.735 ± 1
0.3162278 µM | -1.07 ± 0.81
1 µM | -1.37 ± 0.18
3.16228 µM | -0.0336 ± 0.15
10 µM | 0.443 ± 0.9
31.6228 µM | 8.29 ± 1.1
100 µM | 63.4 ± 0.97

ClCC(Cl)CCl [1,2,3-Trichloropropane]
Conditions | LDH release cytotoxicity [%]
0.03162 µM | -1.72 ± 1.1
0.1 µM | -1.57 ± 0.41
0.3162278 µM | -1.6 ± 0.79
1 µM | -0.683 ± 0.4
3.16228 µM | -0.233 ± 1.1
10 µM | -1.91 ± 0.066
31.6228 µM | -1.01 ± 0.093
100 µM | 0.236 ± 0.36

Cc1nc(C)nc(N2CC(C)N(c3ccnc(C(C)O)n3)C(C)C2)n1 (stereo unspecified)
Conditions | LDH release cytotoxicity [%]
0.01581 µM | -1.17 ± 0.94
0.05 µM | -0.963 ± 0.92
0.1581139 µM | -1.7 ± 1
0.5 µM | -1.95 ± 0.69
1.5811388 µM | -0.835 ± 0.61
5 µM | -1.01 ± 0.15
15.8114 µM | -0.652 ± 0.091
50 µM | 0.767 ± 0.63

Cc1cc(-c2ccc(N)c(C)c2)ccc1N [3,3'-Dimethylbenzidine]
Conditions | LDH release cytotoxicity [%]
0.03162 µM | -0.774 ± 1.1
0.1 µM | -1.43 ± 0.33
0.3162278 µM | -1.35 ± 0.3
1 µM | -1.27 ± 0.083
3.16228 µM | -0.397 ± 0.66
10 µM | -0.218 ± 0.26
31.6228 µM | 2.22 ± 0.32
100 µM | 5.88 ± 1.2

CN(C)CCOC(c1ccccc1)c1ccccc1 [Diphenhydramine hydrochloride]
Conditions | LDH release cytotoxicity [%]
0.03162 µM | -0.0757 ± 0.11
0.1 µM | -1.04 ± 0.17
0.3162278 µM | -0.977 ± 0.34
1 µM | -1.8 ± 1.1
3.16228 µM | -1.62 ± 0.031
10 µM | -0.793 ± 0.26
31.6228 µM | -0.772 ± 0.23
100 µM | 1.1 ± 0.12

CN=C=S [Methyl isothiocyanate]
Conditions | LDH release cytotoxicity [%]
0.031623 µM | -2.69 ± 0.49
0.1 µM | -1.72 ± 1
0.316228 µM | -3.56 ± 1.4
1 µM | -4.608 ± 0.021
3.16228 µM | -3.71 ± 0.42
10 µM | -2.9 ± 0.8
31.6228 µM | 0.153 ± 0.77
100 µM | 49.2 ± 6.8
